Experimental data as given in BigSolDB 2.1.

O=C1OC(=O)[C@H]2[C@@H]1[C@@H]1C=C[C@H]2C1
solubility (mole fraction)
Conditions | 278.15 K | 283.15 K | 288.15 K | 293.15 K | 298.15 K | 303.15 K | 308.15 K | 313.15 K | 318.15 K | 323.15 K
in 1,4-dioxane | – | – | 0.0718 | 0.0836 | 0.0939 | 0.107 | 0.123 | 0.136 | 0.154 | 0.173
in DMF | 0.0809 | 0.0925 | 0.106 | 0.12 | 0.135 | 0.152 | 0.171 | 0.186 | 0.208 | 0.23
in NMP | 0.112 | 0.126 | 0.14 | 0.156 | 0.172 | 0.19 | 0.209 | 0.225 | 0.245 | 0.265
in acetone | 0.0395 | 0.0475 | 0.0559 | 0.0658 | 0.0776 | 0.0897 | 0.106 | 0.121 | 0.138 | 0.155
in ethanol | 0.00216 | 0.00264 | 0.00354 | 0.00441 | 0.0056 | 0.00699 | 0.00872 | 0.0109 | 0.0135 | 0.0168
in ethyl acetate | 0.0293 | 0.0338 | 0.0413 | 0.0484 | 0.0535 | 0.0632 | 0.0737 | 0.0838 | 0.0969 | 0.11
in isobutyl acetate | 0.0199 | 0.0236 | 0.0284 | 0.0341 | 0.0396 | 0.0468 | 0.0552 | 0.0636 | 0.0741 | 0.0848
in isopropyl acetate | 0.021 | 0.0258 | 0.03 | 0.0357 | 0.0417 | 0.0489 | 0.0569 | 0.0661 | 0.0768 | 0.0878
in methanol | 0.00403 | 0.00504 | 0.00635 | 0.00781 | 0.0101 | 0.0126 | 0.0157 | 0.0201 | 0.0246 | 0.0311
in methyl acetate | 0.0358 | 0.0425 | 0.0485 | 0.0562 | 0.0644 | 0.0754 | 0.0851 | 0.0973 | 0.11 | 0.125
in n-butyl acetate | 0.0216 | 0.0259 | 0.031 | 0.0367 | 0.0428 | 0.0505 | 0.0587 | 0.0683 | 0.0788 | 0.0908
in n-pentyl acetate | 0.0192 | 0.0231 | 0.0276 | 0.0327 | 0.0388 | 0.0455 | 0.0535 | 0.0626 | 0.0726 | 0.0837
in n-propyl acetate | 0.0249 | 0.0303 | 0.0357 | 0.0414 | 0.0486 | 0.0565 | 0.0661 | 0.0761 | 0.0878 | 0.101
